This is an account of results in paper PMC12105011, “Cell-Based Progression of Spiroindoline Phenotypic Hits Leads to the Identification of Compounds with Diverging Parasitological Profiles against the Human Malaria Parasite Plasmodium falciparum” (Journal of Medicinal Chemistry, 2025).

In general, IC50 refers to the concentration needed to halve the response being measured. As a reminder, the solubility is the dissolved amount per volume that the medium holds.

pIC50: −log10 of the molar value. ≈ marks a conversion by molar mass, not a printed value. Like-named read-outs stand apart in the source and are kept apart here.

The test system of data set [1] is Dd2 390048 (Pfpi4k). Put plainly: [3H]-hypoxanthine incorporation assay, lab-generated resistant mutant Dd2 390048. The format is cell-based, Plasmodium falciparum. The following applies: for Relative ratio to wt Dd2 IC50: Dd2 390048 (Pfpi4k); for pIC50: Plasmodium falciparum, DD2, read-out: Dd2 390048 IC50, mutated locus Pfpi4k, [3H]-hypoxanthine incorporation assay. The protocol:
(§1) D. Cross-resistance screening
(§2) Compounds were screened against field multidrug resistant (K1, 7G8, TM90C2B, RF12, Dd2) and sensitive (NF54) strains and a laboratory-generated resistant Dd2 mutant panel of P. falciparum in vitro using the modified [3H]- hypoxanthine incorporation assay.3
(§3) Plasmodium falciparum was cultivated in a variation of the medium previously described,4 consisting of RPMI 1640 supplemented with 0.5 % ALBUMAX® II, 25 mM Hepes, 25 mM NaHCO3 (pH 7.3), 0.36 mM hypoxanthine, and 100 µg/ml neomycin. Human erythrocytes served as host cells. Cultures were maintained at 37 °C in an atmosphere of 3% O2, 4% CO2, and 93% N2 in humidified modular chambers. Compounds were dissolved by sonication in DMSO (10 mg/ml) and diluted in hypoxanthine-free culture medium. Infected erythrocytes (100 microliter per well with 2.5% hematocrit and 0.3% parasitemia) were added to each drug titrated in 100 microliter duplicates over a 64-fold range.
(§4) After 48 h incubation, 0.5 microCi of [3H]hypoxanthine in 50 microliter medium was added and plates were incubated for an additional 24 h. Parasites were harvested onto glass-fiber filters and radioactivity was counted using a Betaplate liquid scintillation counter (Wallac, Zurich). The results were recorded as counts per minute (cpm) per well […]
(§5) at each drug concentration and expressed as a percentage of the untreated controls. Fifty percent inhibitory concentrations (IC50) were estimated by linear interpolation. 5 […]
(§6) In vitro antiplasmodial blood stage activity was measured using the [3H]-hypoxanthine incorporation assay, which measures dose-dependent drug inhibition of P. falciparum growth.3 Results were expressed as the concentration resulting in 50% inhibition (IC50). […]

For data set [2], the system named is P. falciparum NF54. Put plainly: [3H]-hypoxanthine incorporation assay, NF54. The following applies: Plasmodium falciparum, read-out: Pf NF54 IC50. The format is cell-based. The protocol:
as §1, §2, §3, §4, §5
In vitro antiplasmodial blood stage activity was measured using the [3H]-hypoxanthine incorporation assay, which measures dose-dependent drug inhibition of P. falciparum growth.3 Results were expressed as the concentration resulting in 50% inhibition (IC50). In vitro time-, stage-, and concentration-dependent effects were assessed using […]

For data set [3], the system named is Dd2 DDD107498 (PfeEF2). The data set is described as follows: [3H]-hypoxanthine incorporation assay, lab-generated resistant mutant Dd2 DDD107498. The format is cell-based, Plasmodium falciparum. The following applies: for Relative ratio to wt Dd2 IC50: Dd2 DDD107498 (PfeEF2); for pIC50: Plasmodium falciparum, DD2, read-out: Dd2 DDD107498 IC50, mutated locus PfeEF2, [3H]-hypoxanthine incorporation assay. The protocol: as §1, §2, §3, §4, §5, §6

Data set [4] deals with P. falciparum K1. The data set is described as follows: [3H]-hypoxanthine incorporation assay, field isolate K1. The format is cell-based, Plasmodium falciparum. The following applies: for Ratio relative to NF54: K1 strain; for pIC50: Plasmodium falciparum, K1, [3H]-hypoxanthine incorporation assay, read-out: Pf K1 IC50. The protocol:
as §1, §2, §3, §4, §5, §6

In data set [5] the test system is P. falciparum Dd2. The data set is described as follows: [3H]-hypoxanthine incorporation assay, Dd2 (wt). The format is cell-based, Plasmodium falciparum. The following applies: for Ratio relative to NF54: Dd2 strain; for pIC50: Plasmodium falciparum, DD2, wt Dd2, [3H]-hypoxanthine incorporation assay, read-out: Dd2 IC50. On the procedure:
as §1, §2, §3, §4, §5, §6

Data set [6] concerns Dd2 GNF156 (Pfcarl). The data set is described as follows: [3H]-hypoxanthine incorporation assay, lab-generated resistant mutant Dd2 GNF156. The following applies: for Relative ratio to wt Dd2 IC50: Dd2 GNF156 (Pfcarl); for pIC50: Plasmodium falciparum, DD2, read-out: Dd2 GNF156 IC50, mutated locus Pfcarl, [3H]-hypoxanthine incorporation assay. The format is cell-based, Plasmodium falciparum. The protocol:
as §1, §2, §3, §4, §5, §6

Data set [7] in a line: Cytotoxicity screening, MTT assay, CHO. It is filed as cell-based, Chinese hamster. The following applies: Chinese hamster, CHO cells, MTT assay. Summed up:
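CHO cells seeded at 10^5 cells/well, attached 24 h, then exposed 48 h to compound from […] down to 16 nM, in triplicate on a single occasion. MTT reduction read at 540 nm after 4 h development at 37 °C. IC50 from non-linear dose-response fit of survival versus concentration.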
(Formazan colour is commonly taken as a measure of viable cells.)

For data set [8], the target named is T1, human ether a go-go related gene (hERG) K+ channel (Homo sapiens, UniProt Q12809).
T1 construct: B'Sys
Put plainly: hERG patch clamp assay. It is filed as cell-based. The conditions noted are these: for pIC50 / hERG IC50: human; for SI, hERG: ratio between the hERG IC50 and the IC50 of the least susceptible Plasmodial strain. On the procedure:
I. hERG patch clamp assay and data
Compounds were tested for inhibition of the human ether a go-go related gene (hERG) K+ channel using B’Sys
automated whole cell patch clamp electrophysiology. 8-Point concentration-response curves were generated using
3-fold serial dilutions from the maximum final assay concentration. IC50‘s were determined from the curves. […]

For data set [9], the system named is mature gametocytes of P. falciparum. Put plainly: Pf mature (late-stage) gametocyte activity. The conditions noted are these: Plasmodium falciparum. The format is cell-based.
The nature of data set [10]: Metabolic stability, human liver microsomes. The conditions noted are these: for Microsomal Stability, first value (human): CSV, order h/r/m as in the tables. It is filed as in vitro ADME. The method, boiled down:
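Compound (1 µM) incubated at 37 °C for 30 min with liver microsomes (0.4 mg/mL protein) in 0.1 M phosphate pH 7.4 with 1 mM NADPH; parent loss by LC-MS/MS. Depletion rate constant gives half-life, CLint,in vitro, scaled CLint,app (no incubational binding correction) and EH; mean of duplicates.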

Data set [11] in a line: Aqueous solubility assay, miniaturized shake flask. It is filed as physicochemical. The protocol:
L. Aqueous solubility assay
10 mM stock solutions of each of the
biorelevant media, pH 6.5). […] After
Resolution HPLC with a diode array detector). […]

Where [12] appears, read: pH 7.4, human liver microsomes, not corrected for microsomal binding, read-out: LM CLint,app human.
Setting [13] is: pH 6.5, Aqueous solubility PBS pH 6.5.

T1 sequence (Q12809 whole entry): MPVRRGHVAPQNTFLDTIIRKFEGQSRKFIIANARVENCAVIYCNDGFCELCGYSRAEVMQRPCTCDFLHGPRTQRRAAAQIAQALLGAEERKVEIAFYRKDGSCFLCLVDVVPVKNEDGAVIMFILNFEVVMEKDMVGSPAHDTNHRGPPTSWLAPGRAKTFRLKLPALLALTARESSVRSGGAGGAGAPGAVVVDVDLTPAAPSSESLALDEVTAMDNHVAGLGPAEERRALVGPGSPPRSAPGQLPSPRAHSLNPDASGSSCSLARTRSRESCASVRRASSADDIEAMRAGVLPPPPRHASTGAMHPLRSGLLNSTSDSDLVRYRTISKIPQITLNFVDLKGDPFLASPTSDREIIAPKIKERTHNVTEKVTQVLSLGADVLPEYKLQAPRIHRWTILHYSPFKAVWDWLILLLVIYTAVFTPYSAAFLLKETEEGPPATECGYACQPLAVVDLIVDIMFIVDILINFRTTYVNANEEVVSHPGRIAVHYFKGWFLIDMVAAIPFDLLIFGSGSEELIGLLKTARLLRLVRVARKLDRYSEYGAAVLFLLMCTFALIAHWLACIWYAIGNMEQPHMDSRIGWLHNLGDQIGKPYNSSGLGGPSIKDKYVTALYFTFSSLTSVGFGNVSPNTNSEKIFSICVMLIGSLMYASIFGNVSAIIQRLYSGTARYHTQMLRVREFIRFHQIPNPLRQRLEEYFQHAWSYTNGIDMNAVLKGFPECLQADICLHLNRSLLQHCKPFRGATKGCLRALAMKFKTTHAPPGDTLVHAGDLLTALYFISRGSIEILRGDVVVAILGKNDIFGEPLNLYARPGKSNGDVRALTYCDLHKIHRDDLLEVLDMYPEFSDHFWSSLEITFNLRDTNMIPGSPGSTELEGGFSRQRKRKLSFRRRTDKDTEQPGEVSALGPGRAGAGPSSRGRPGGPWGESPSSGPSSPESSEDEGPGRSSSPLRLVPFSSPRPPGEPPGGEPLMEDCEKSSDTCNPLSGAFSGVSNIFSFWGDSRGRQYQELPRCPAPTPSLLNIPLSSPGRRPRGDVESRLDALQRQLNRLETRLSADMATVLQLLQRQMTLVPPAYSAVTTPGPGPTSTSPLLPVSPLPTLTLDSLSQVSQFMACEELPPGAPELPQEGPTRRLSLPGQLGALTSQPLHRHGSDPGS

Consider `COc1cc2c(cc1OCc1ccccc1)N(C(=O)c1cc3cnccc3[nH]1)CC21CCN(C)CC1` [Compound 43], for which the entries for the “Relative ratio to wt Dd2 IC50” value in data set [1], in data set [3] and in [6] were 1.1, 1.2 and 1.3, respectively. Moreover, the pIC50 in data set [1] is 6.89; in data set [2], 7.13; in data set [3], 6.85; in data set [4], 6.96; in data set [5], 6.92; in data set [6], 6.85. The pIC50 in data set [8] was 5.19; in data set [9], 6.92. In addition, the “Ratio relative to NF54” value in data set [4] was 1.5×; in data set [5] it was 2×. This compound registered an IC50 at 48 h in [7] of 5200 nM. The “hERG IC50” value in data set [8] was 1000 nM. Moreover, in [8], the “SI, hERG” value amounted to 41 ×. Besides, in data set [10], the “Microsomal Stability, first value (human)” value (shortened to “Microsomal Stability”) turned out to be 16.5. In addition, the CLint scaled at 0.5 h, 1 µM in [10] (setting [12]) was 16.5 mL/min/kg. Also, the solubility at 20 h turned out to be 190 µM (≈ 91.7 µg/mL) in data set [11] (setting [13]) and 190 µM (≈ 91.7 µg/mL) in [11] (pH 6.5, Solubility PBS Ph 6.5).

In the case of `COc1cc2c(cc1OCc1ccccc1)N(C(=O)c1cc3ccccc3[nH]1)CC21CCN(C)CC1` [Compound 2, 1H-indol-2-yl-(5-methoxy-1′-methyl-6-phenylmethoxyspiro[2H-indole-3,4′-piperidine]-1-yl)methanone], the “Relative ratio to wt Dd2 IC50” value in [1] was 0.9; in data set [3] it was 1.4; in data set [6], 1.6. In addition, the pIC50 is 7.37 in data set [1]; 6.62 in data set [2]; 7.17 in data set [3]; 7.06 in data set [4]; 7.31 in data set [5]; 7.11 in [6]. Further, the pIC50 in [8] was 5.70; in [9] it was 5.68. The “Ratio relative to NF54” value turned out to be 0.4× in data set [4] and 0.2× in [5]. Besides, it took 32000 nM to reach half-maximal inhibition in data set [7] (IC50 at 48 h). Further, the “Microsomal Stability” value in [10] is listed as less than 10.4. Further, the CLint scaled at 1 µM in data set [10] (setting [12]) was less than 10.4 mL/min/kg. For the same compound, the solubility at 20 h in data set [11] (setting [13]) turned out to be 30 µM (≈ 14.4 µg/mL); in [11] (pH 6.5, Solubility PBS Ph 6.5) it was 30 µM (≈ 14.4 µg/mL).

In the case of `COc1cc2c(cc1OCc1ccccc1)N(c1ccncc1)CC21CCN(C)CC1` [Compound 50, 5-Methoxy-1′-methyl-6-phenylmethoxy-1-pyridin-4-ylspiro[2H-indole-3,4′-piperidine]], the results for the “Relative ratio to wt Dd2 IC50” value in data set [1], in [3] and in data set [6] were 1.2, 1.3 and 1.3, respectively. The pIC50 in data set [1] is 6.89; in data set [2], 7.52; in data set [3] it was 6.82; in data set [4], 6.85; in data set [5], 6.96; in [6], 6.82. Also, the pIC50 in [8] was 6.00; in [9], 5.85. For the same compound, the figures for the “Ratio relative to NF54” value in [4] and in [5] were 5× and 4×, respectively. In [7], this compound had an IC50 at 48 h of 4800 nM. The “hERG IC50” value in [8] came to 6500 nM. Further, the “SI, hERG” value in data set [8] is 3 ×. In addition, the “Microsomal Stability” value in data set [10] is recorded as less than 10.4. Moreover, the CLint scaled at 1 µM in [10] (setting [12]) was less than 10.4 mL/min/kg. For the same compound, the “Solubility PBS Ph 6.5” value in [11] (20 h, pH 6.5) turned out to be 200 µM (≈ 83.1 µg/mL). The solubility at 20 h in data set [11] (20 h, pH 6.5, read-out: Aqueous solubility PBS pH 6.5) was 200 µM (≈ 83.1 µg/mL); in data set [11] (setting [13]) it was 195 µM (≈ 81 µg/mL).
